Measured values as given in patent US20230406821A1, “STRIGOLACTONE DERIVATIVES” (Plant Response, Inc., priority 2017, published 2023).

Assays:
BRANCHED1 (BRC1) gene = test: BRC1 gene expression by RT-PCR in sprayed seedlings; assay type: in vivo, Arabidopsis thaliana; conditions: Col-0 seedlings, foliar spray, 0.4% DMSO, shoots harvested 24 hours later; similarly to GR24 (FIG. 2)
Description: FIG. 2 is a boxplot representing Ct value distributions of BRC1 relative to constitutive control Ct values plotted as ΔCt. Due to the non-normal distribution of the BRC1 data, non-parametric Mann-Whitney U-tests were used to assess statistical significance. Stars indicate significant differences relative to the DMSO control (**: adjustedp-value <0.001; *: adjusted p-value <0.01; p-values adjusted for multiple-hypothesis testing with the Bonferroni correction). […]
Another experiment was performed to consider an aspect of molecular signal transduction. A number of genes in Arabidopsis thaliana are well known downstream signaling targets of the native strigolactone pathway. […]
In this experiment sterilized and stratified seeds of the A. thaliana Columbia (Col-0) were planted on growth media (Murashige and Skoog (MS) M404 with vitamins (2.2 g/L), 0.5% sucrose, 0.05% IVIES hydrate, 0.6% PhytoBlend™) for eight days in a growth chamber under 16 hours of light per day at 22° C. and 19° C. nights. […] Total RNA was extracted and RT-PCR quantification was performed using kits from Macherey-Nagel and Bioline and an ABI 7900HT instrument. […]

[1] = tested on: S. lycopersicum cv. Micro-Tom; test: Stomatal conductance (LI-6400XT) after ABA treatment in tomato; assay type: in vivo, Solanum lycopersicum; conditions: 500 μM in DMSO (0.1%) applied one hour before ABA (100 μM), compared to ABA alone (FIG. 6)
Description: FIG. 6 is a boxplot showing the distribution of tomato (S. lycopersicum cv. Micro-Tom) stomatal conductance (mmol/m^2/s) measurements taken via LI-6400XT, plotted by treatment. Plants treated with strigolactone molecule MBS-127 prior to treatment with abscisic acid (ABA) show increased stomatal conductance, as measured by gas exchange with the LI-6400XT, compared to plants treated with ABA alone. Stars indicate significant differences relative to ABA (*: adjusted P<0.05, **: adjusted P<0.01; p-values were adjusted for multiple-hypothesis testing using a Bonferroni correction).
An early response and critical component of abiotic stress response signaling in plants is the production and transport of the phytohormone abscisic acid (ABA) (Kuromori, T., et al., “ABA Transport and Plant Water Stress Responses,” Trends in Plant Science (2018) Vol. 23 (6), pp. 513-522). […]

Row | SMILES | expression of the BRC1 gene (ΔCt) (BRANCHED1 (BRC1) gene) | leaf (stomatal) conductance after ABA [1]
1 | COC(=O)/C=C/OC1C=C(C)C(=O)O1 (stereo not drawn) [MBS-127, 3-(4-Methyl-5-oxo-2,5-dihydro-furan-2-yloxy)-acrylic acid methyl ester] | induced expression of the BRC1 gene | protect against the drought stress response related reduction in leaf conductance induced by ABA
2 | COC(=O)/C=C/OC1(C)C=C(C)C(=O)O1 (stereo not drawn) [MBS-128, methyl (E)-3-((2,4-dimethyl-5-oxo-2,5-dihydrofuran-2-yl)oxy)acrylate] | induced expression of the BRC1 gene | 
